Assay results taken from patent US12509424B2, “Compound and composition as PDGF receptor kinase inhibitor” (NIPPON SHINYAKU CO., LTD., priority 2019, dated 2025).
Where two headings read alike, the source gives them in different places.

Assays:
[1] = target: TEL-PDGFRβ fusion gene transfected cells (Ba/F3); experiment: Suppression of proliferation of TEL-PDGFRβ fusion gene transfected Ba/F3 cells; format: cell-based, human; conditions: TEL-PDGFRβ expressing Ba/F3 cells, 72 hours, final concentration 0.1 to 10,000 nM; read-out: PDGFR β/BaF3 proliferation inhibition (IC50)
Source text: 2. Preparation of Test Substance
4. Analysis of Measurement Results

[2] = target: PDGFR-β (Homo sapiens (Human), UniProt P09619); experiment: PDGFR-β tyrosine kinase inhibitory action (HTRF KinEASE-TK); format: biochemical; conditions: PDGFR-β enzyme 1 ng/μL, 30° C. for 30 minutes; read-out: PDGF-β IC50
Procedure, shortened: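 Recombinant PDGFR-β at 1 ng/μL final with TK substrate-3-biotin in a substrate solution containing 0.6 μM ATP; buffer 50 mM HEPES pH 7.0, 5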

[3] = target: TEL-KIT fusion gene transfected cells (Ba/F3); experiment: Suppression of proliferation of TEL-KIT fusion gene transfected Ba/F3 cells; conditions: read-out: KIT/BaF3 proliferation inhibition (IC50); TEL-KIT expressing Ba/F3 cells, 72 hours, final concentration 0.1 to 10,000 nM;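 also: viable cells quantified via formazan from tetrazolium reduction, inhibition scaled with 0.1% DMSO control as 0% and medium-only blank as 100%, IC50 from two-parameter logistic fit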
Source text: Fabrication of TEL-PDGFRβ and TEL-KIT Fusion Gene Transfected Cells
Subsequently, the vectors for gene transfection were introduced using a transfection reagent (FuGENE6, Promega Corporation) into packaging cells derived from a human fetal kidney cell line, PLAT-E, in the logarithmic growth phase. Since the culture supernatant of PLAT-E after the gene transfection contained virus particles for gene transfection, it was collected and used as a medium for gene transfection. The medium for gene transfection was added to a plate coated with RetroNectin and incubated, and the virus particles were allowed to adhere to the plate. Thereafter, the mouse pro-B cell line Ba/F3 in the logarithmic growth phase was seeded onto the plate and infected with the virus to fabricate cells that proliferate in a PDGFRβ or KIT dependent manner.
The test substance was prepared with dimethyl sulfoxide (DMSO) to 10 mM and diluted with DMSO so as to reach a concentration of 0.0001 to 3 mM. Furthermore, it was diluted by 100 times with distilled water.
Measurement of Suppression Action Against Proliferation of TEL-PDGFRβ or TEL-KIT Expressing Cells
The day after TEL-PDGFRβ and TEL-KIT expressing cells were seeded onto 96 well plates, the prepared test substance solution was added thereto with a final concentration being 0.1 to 10,000 nM. After 72 hours, the viable cell count was measured using the amount of formazan generated from the reduction of a tetrazolium salt compound by the mitochondrial dehydrogenase of viable cells as an indicator.
Based on the amount of formazan in each condition, the suppression rate against cell proliferation was calculated when the amounts of formazan in the negative control (0.1% DMSO solution) and Blank (medium only) were defined as 0% and 100%, respectively. Subsequently, a nonlinear regression analysis with a two parameter logistic model for the log dose and suppression rate against cell proliferation was carried out using the SAS system (SAS Institute Inc.) to estimate the IC50 value.

[4] = test system: pulmonary arterial smooth muscle cells; experiment: Suppression of proliferation of pulmonary arterial smooth muscle cells (PDGF-BB stimulation, BrdU); format: cell-based; conditions: PASMC, read-out: Human normal PASMC proliferation suppression (PDGF stimulation_IC50)
Procedure, shortened: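 Healthy human pulmonary arterial smooth muscle cells, serum-starved a day in 0.1% FBS medium, were treated with compound at final 3 to 10,000 nM plus human PDGF-BB (final 10 ng/mL) and BrdU. After 1 day of culture, BrdU uptake was measured with an anti-BrdU antibody.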

[5] = 24 h, healthy human derived pulmonary arterial smooth muscle cells, human PDGF-BB 10 ng/mL stimulation, BrdU uptake after 1 day, test substance final concentration 3 to 10,000 nM
[6] = human PDGF-BB 10 ng/mL, BrdU uptake, final concentration 3 to 10,000 nM

Sequence of TEL-KIT fusion gene transfected cells (Ba/F3) (P10721 26-976 limits assumed, change not shown): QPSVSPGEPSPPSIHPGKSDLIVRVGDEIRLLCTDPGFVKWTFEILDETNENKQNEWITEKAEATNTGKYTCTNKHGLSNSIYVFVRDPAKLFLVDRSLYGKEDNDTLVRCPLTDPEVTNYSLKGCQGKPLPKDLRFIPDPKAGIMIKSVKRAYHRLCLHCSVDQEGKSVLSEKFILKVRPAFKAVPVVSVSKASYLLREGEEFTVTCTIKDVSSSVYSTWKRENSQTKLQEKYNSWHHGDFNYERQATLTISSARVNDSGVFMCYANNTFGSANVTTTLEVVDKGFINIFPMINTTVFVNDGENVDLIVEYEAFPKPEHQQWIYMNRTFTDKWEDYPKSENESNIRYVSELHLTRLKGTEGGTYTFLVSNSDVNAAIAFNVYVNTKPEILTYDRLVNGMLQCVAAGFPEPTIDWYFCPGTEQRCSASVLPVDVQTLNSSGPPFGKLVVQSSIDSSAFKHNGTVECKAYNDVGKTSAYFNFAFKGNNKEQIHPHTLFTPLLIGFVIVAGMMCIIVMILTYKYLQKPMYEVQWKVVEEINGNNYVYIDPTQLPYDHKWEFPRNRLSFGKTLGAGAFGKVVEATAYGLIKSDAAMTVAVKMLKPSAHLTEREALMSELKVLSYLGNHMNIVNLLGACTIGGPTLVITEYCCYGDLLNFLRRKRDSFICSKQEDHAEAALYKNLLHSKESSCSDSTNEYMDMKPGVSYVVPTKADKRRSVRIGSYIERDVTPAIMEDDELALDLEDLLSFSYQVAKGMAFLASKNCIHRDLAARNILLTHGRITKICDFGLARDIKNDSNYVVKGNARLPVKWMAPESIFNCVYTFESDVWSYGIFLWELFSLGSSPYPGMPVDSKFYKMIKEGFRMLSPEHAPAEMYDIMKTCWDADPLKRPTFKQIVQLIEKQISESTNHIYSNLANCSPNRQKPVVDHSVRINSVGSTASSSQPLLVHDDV
Sequence of TEL-PDGFRβ fusion gene transfected cells (Ba/F3) (P09619 33-1106 limits assumed, change not shown): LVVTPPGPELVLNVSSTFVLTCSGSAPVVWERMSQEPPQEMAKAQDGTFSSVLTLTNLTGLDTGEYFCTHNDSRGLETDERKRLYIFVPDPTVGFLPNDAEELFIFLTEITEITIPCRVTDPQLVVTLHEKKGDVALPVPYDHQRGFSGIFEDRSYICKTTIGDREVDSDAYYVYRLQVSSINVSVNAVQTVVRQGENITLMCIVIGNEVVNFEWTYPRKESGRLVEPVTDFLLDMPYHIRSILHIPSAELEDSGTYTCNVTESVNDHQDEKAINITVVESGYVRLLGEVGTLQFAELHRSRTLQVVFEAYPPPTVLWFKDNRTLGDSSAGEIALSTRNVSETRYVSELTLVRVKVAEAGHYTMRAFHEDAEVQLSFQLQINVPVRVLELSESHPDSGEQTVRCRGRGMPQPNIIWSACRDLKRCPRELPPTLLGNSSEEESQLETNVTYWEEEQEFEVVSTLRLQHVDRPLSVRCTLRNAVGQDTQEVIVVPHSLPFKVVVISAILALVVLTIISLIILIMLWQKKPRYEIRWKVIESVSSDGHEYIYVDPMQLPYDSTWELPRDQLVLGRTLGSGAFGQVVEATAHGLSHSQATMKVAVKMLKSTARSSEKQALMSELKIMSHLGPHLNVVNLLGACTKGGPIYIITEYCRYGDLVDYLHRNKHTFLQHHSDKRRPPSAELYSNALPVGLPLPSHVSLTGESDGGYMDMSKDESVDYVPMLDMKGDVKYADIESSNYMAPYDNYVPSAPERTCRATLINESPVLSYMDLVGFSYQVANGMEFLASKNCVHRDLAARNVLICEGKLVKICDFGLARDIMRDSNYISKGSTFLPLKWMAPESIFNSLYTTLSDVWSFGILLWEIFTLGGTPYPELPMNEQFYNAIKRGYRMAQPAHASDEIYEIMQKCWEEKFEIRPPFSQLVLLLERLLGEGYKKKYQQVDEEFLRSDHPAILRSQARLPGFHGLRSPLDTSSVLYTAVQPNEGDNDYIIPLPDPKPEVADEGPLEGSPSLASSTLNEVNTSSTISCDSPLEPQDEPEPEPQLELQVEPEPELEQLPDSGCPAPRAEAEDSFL
Sequence of PDGFR-β (P09619 33-1106): as the sequence (P09619 33-1106 limits assumed, change not shown) above

SMILES | IC50 [1] | IC50 [2] | IC50 [3] | IC50 [4, 5] | IC50 [4, 6]
Cc1ccc(C(=O)N[C@H]2CCCC[C@@H]2O)cc1OCc1cncc(-c2cccnc2)c1 [Example 165, 3-[([3,3′-bipyridin]-5-yl)methoxy]-N-[(1S,2S)-2-hydroxycyclohexyl]-4-methylbenzamide] | 9 nM | 390 nM | 2900 nM | 46 nM | –
Cc1ccc(C(=O)N[C@H]2CCCC[C@@H]2O)cc1N[C@@H](C)c1cncc(-c2cccnc2)c1 [Example 85, 3-{[(1S)-1-([3,3′-bipyridin]-5-yl)ethyl]amino}-N-[(1S,2S)-2-hydroxycyclohexyl]-4-methylbenzamide] | 19 nM | 180 nM | 4600 nM | 130 nM | –
Cc1ccc(C(=O)N[C@H]2CCCC[C@@H]2O)cc1NC(=O)c1cnc(NCC(C)(C)C)s1 [Example 41, 2-[(2,2-dimethylpropyl)amino]-N-(5-{[(1S,2S)-2-hydroxycyclohexyl]carbamoyl}-2-methylphenyl)-1,3-thiazole-5-carboxamide] | 35 nM | 130 nM | 2100 nM | 210 nM | –
Cc1ccc(C(=O)N[C@H]2CCCC[C@@H]2O)cc1NCc1cncc(-c2ncc(F)cn2)c1 [Example 107, 3-({[5-(5-fluoropyrimidin-2-yl)pyridin-3-yl]methyl}amino)-N-[(1S,2S)-2-hydroxycyclohexyl]-4-methylbenzamide] | 19 nM | 190 nM | 1200 nM | 110 nM | –
Cc1ccc(C(=O)N[C@H]2CCCC[C@@H]2O)cc1NC(=O)c1cnc(NC2(C)CC2)s1 [Example 39, N-(5-{[(1S,2S)-2-hydroxycyclohexyl]carbamoyl}-2-methylphenyl)-2-[(1-methylcyclopropyl)amino]-1,3-thiazole-5-carboxamide] | 13 nM | 100 nM | 1000 nM | 150 nM | –
Cc1ccc(C(=O)N[C@H]2CCCC[C@@H]2O)cc1C#Cc1cncc(C2CC2)c1 [Example 67, 3-[(5-cyclopropylpyridin-3-yl)ethynyl]-N-[(1S,2S)-2-hydroxycyclohexyl]-4-methylbenzamide] | 5.2 nM | 43 nM | 300 nM | 120 nM | –
Cc1c(F)cc(C(=O)N[C@H]2CCCC[C@@H]2O)cc1NCc1cncc(-c2ncccn2)c1 [Example 106, 3-fluoro-N-[(1S,2S)-2-hydroxycyclohexyl]-4-methyl-5-({[5-(pyrimidin-2-yl)pyridin-3-yl]methyl}amino)benzamide] | 2.1 nM | 67 nM | 1300 nM | 140 nM | –
COc1ccc(-c2cncc(C(=O)Nc3cc(C(=O)N[C@H]4CCCC[C@@H]4O)ccc3C)c2)cc1 [Example 18, N-(5-{[(1S,2S)-2-hydroxycyclohexyl]carbamoyl}-2-methylphenyl)-5-(4-methoxyphenyl)pyridine-3-carboxamide] | 20 nM | 39 nM | 530 nM | – | 47 nM
Cc1ccc(C(=O)N[C@H]2CCCC[C@@H]2O)cc1C#Cc1cncc(Br)c1 [Example 61, 3-[(5-bromopyridin-3-yl)ethynyl]-N-[(1S,2S)-2-hydroxycyclohexyl]-4-methylbenzamide] | 18 nM | 41 nM | 840 nM | 18 nM | –
Cc1ccc(C(=O)N[C@H]2CCCC[C@@H]2O)cc1NC(=O)c1cncc(NC2CC2)c1 [Example 4, 5-(cyclopropylamino)-N-(5-{[(1S,2S)-2-hydroxycyclohexyl]carbamoyl}-2-methylphenyl)pyridine-3-carboxamide] | 26 nM | 4.9 nM | 1500 nM | – | 220 nM
Cc1ccc(C(=O)N[C@@H](CO)[C@@H](O)c2ccccc2)cc1CNc1cncc(-c2ccccn2)c1 [Example 155, 3-{[([2,3′-bipyridin]-5′-yl)amino]methyl}-N-[(1S,2S)-1,3-dihydroxy-1-phenylpropan-2-yl]-4-methylbenzamide] | 69 nM | 36 nM | 10000 nM | 160 nM | –
COc1ccc(-c2cncc(C(=O)Nc3cc(C(=O)N[C@H]4CCCC[C@@H]4O)ccc3C)c2)c(F)c1 [Example 33, 5-(2-fluoro-4-methoxyphenyl)-N-(5-{[(1S,2S)-2-hydroxycyclohexyl]carbamoyl}-2-methylphenyl)pyridine-3-carboxamide] | 80 nM | 19 nM | 880 nM | 67 nM | –
Cc1ccc(C(=O)N[C@H]2CCCC[C@@H]2O)cc1NC(=O)c1cncc(OC2CCC(F)(F)CC2)c1 [Example 28, 5-[(4,4-difluorocyclohexyl)oxy]-N-(5-{[(1S,2S)-2-hydroxycyclohexyl]carbamoyl}-2-methylphenyl)pyridine-3-carboxamide] | 50 nM | 170 nM | 5800 nM | – | 280 nM
Cc1ccc(C(=O)N[C@H]2CCCC[C@@H]2O)cc1NCc1cnc(NC2CC2)nc1 [Example 114, 3-({[2-(cyclopropylamino)pyrimidin-5-yl]methyl}amino)-N-[(1S,2S)-2-hydroxycyclohexyl]-4-methylbenzamide] | 2.7 nM | 270 nM | 960 nM | 190 nM | –
Cc1ccc(C(=O)N[C@@H](CO)[C@@H](O)c2ccccc2)cc1Nc1ccnc(-c2cncc3ccccc23)n1 [Example 80, N-[(1S,2S)-1,3-dihydroxy-1-phenylpropan-2-yl]-3-{[2-(isoquinolin-4-yl)pyrimidin-4-yl]amino}-4-methylbenzamide] | 80 nM | 120 nM | > 10000 nM | 280 nM | –
Cc1ccc(C(=O)N[C@@H](CO)[C@@H](O)c2ccccc2)cc1CNc1cncc(C2CC2)c1 [Example 154, 3-{[(5-cyclopropylpyridin-3-yl)amino]methyl}-N-[(1S,2S)-1,3-dihydroxy-1-phenylpropan-2-yl]-4-methylbenzamide] | 230 nM | 340 nM | > 10000 nM | 98 nM | –
Cc1ccc(C(=O)N[C@H]2CCCC[C@@H]2O)cc1NC(=O)c1cncc(/C=C/C2CC2)c1 [Example 15, 5-[(E)-2-cyclopropylethenyl]-N-(5-{[(1S,2S)-2-hydroxycyclohexyl]carbamoyl}-2-methylphenyl)pyridine-3-carboxamide] | 3.9 nM | 11 nM | 330 nM | – | 18 nM
Cc1ccc(C(=O)N[C@H]2CCCC[C@@H]2O)cc1NCc1cncc(Br)c1 [Example 91, 3-{[(5-bromopyridin-3-yl)methyl]amino}-N-[(1S,2S)-2-hydroxycyclohexyl]-4-methylbenzamide] | 26 nM | 150 nM | 2700 nM | 150 nM | –
Cc1ccc(C(=O)N[C@H]2CCCC[C@@H]2O)cc1NCc1cncc(-c2ccc(N)cc2)c1 [Example 99, 3-({[5-(4-aminophenyl)pyridin-3-yl]methyl}amino)-N-[(1S,2S)-2-hydroxycyclohexyl]-4-methylbenzamide] | 0.5 nM | 13 nM | 480 nM | 27 nM | –
Cc1ccc(C(=O)N[C@H]2CCCC[C@@H]2O)cc1NC(=O)c1cnc(NC2(C)CCC2)s1 [Example 40, N-(5-{[(1S,2S)-2-hydroxycyclohexyl]carbamoyl}-2-methylphenyl)-2-[(1-methylcyclobutyl)amino]-1,3-thiazole-5-carboxamide] | 4.6 nM | 43 nM | 1200 nM | 75 nM | –
Cc1ccc(C(=O)N[C@H]2CCCC[C@@H]2O)cc1NC(=O)c1cncc(-c2ccccc2)c1 [Example 2, N-(5-{[(1S,2S)-2-hydroxycyclohexyl]carbamoyl}-2-methylphenyl)-5-phenylpyridine-3-carboxamide] | 3.6 nM | 22 nM | 200 nM | – | 23 nM
Cc1ccc(C(=O)N[C@H]2CCCC[C@@H]2O)cc1NC(=O)c1cnc(-c2ccccc2)o1 [Example 5, N-(5-{[(1S,2S)-2-hydroxycyclohexyl]carbamoyl}-2-methylphenyl)-2-phenyl-1,3-oxazole-5-carboxamide] | 5.8 nM | 6.1 nM | 170 nM | – | 48 nM
Cc1ccc(C(=O)N[C@H]2CCCC[C@@H]2O)cc1NC(=O)c1cnc(NC2CC2)s1 [Example 1, 2-(cyclopropylamino)-N-(5-{[(1S,2S)-2-hydroxycyclohexyl]carbamoyl}-2-methylphenyl)-1,3-thiazole-5-carboxamide] | 17 nM | 5.9 nM | 480 nM | – | 110 nM
Cc1ccc(C(=O)N[C@@H](CO)[C@@H](O)c2ccccc2)cc1CNc1cncc(Br)c1 [Example 152, 3-{[(5-bromopyridin-3-yl)amino]methyl}-N-[(1S,2S)-1,3-dihydroxy-1-phenylpropan-2-yl]-4-methylbenzamide] | 100 nM | 50 nM | > 10000 nM | 82 nM | –
